The record followed here is article PMC5635026, “Homo-PROTACs: bivalent small-molecule dimerizers of the VHL E3 ubiquitin ligase to induce self-degradation” (Nature Communications, 2017).

One experiment concerns the target pVHL30 (Homo sapiens, UniProt P40337). The experiment can be described thus: Isothermal titration calorimetry (ITC) against VCB complex with long VHL isoform (V30CB). The format is binding. Details: N-terminally His6-tagged VHL (1–213), ElonginC (17–112) and ElonginB (1–104) were co-expressed; His6 (N, cleaved yes); made in house; host or cells: Escherichia coli BL21(DE3). How it is done:
Protein expression and purification. Human proteins VHL (UniProt accession number: P40337), ElonginC (Q15369), and ElonginB (Q15370) were used for all protein expression. The short-isoform-containing VCB complex (V19CB) was expressed, purified and stored as described previously. For expression of the long-isoform-containing VCB complex (V30CB), N-terminally His6-tagged VHL (1–213), ElonginC (17–112) and ElonginB (1–104) were co-expressed in Escherichia coli BL21(DE3) at 20 °C for 18 h using 0.5 mM isopropyl β-D-1-thiogalactopyranoside (IPTG). E. coli cells were resuspended in binding buffer (50 mM HEPES, pH 8.0, 500 mM NaCl, 10 mM imidazole and 5 mM β-mercaptoethanol), lysed using a pressure cell homogenizer (Stansted Fluid Power), and lysate clarified by centrifugation. The supernatant was loaded onto a HisTrap FF affinity column (GE Healthcare) equilibrated with binding buffer, and bound protein was eluted using an imidazole gradient. The His6 tag was removed using thrombin protease (Sigma), and the untagged complex was dialyzed into binding buffer. V30CB was then loaded onto the HisTrap FF column a second time, allowing impurities to bind as the complex eluted without binding. The flow-through was dialyzed using a low-salt buffer (20 mM HEPES, pH 8.0, 25 mM NaCl and 1 mM DTT) and then loaded onto a Resource Q anion exchange column (GE Healthcare); bound protein was eluted across a linear NaCl gradient. V30CB was then additionally purified by size-exclusion chromatography using a Superdex-75 16/600 column (GE Healthcare) equilibrated with 20 mM HEPES, pH 7.5, 100 mM sodium chloride and 1 mM TCEP. All chromatography purification steps were performed using Äkta FPLC purification systems (GE Healthcare).
Isothermal titration calorimetry (ITC). Titrations were performed on an ITC200 micro-calorimeter (GE Healthcare). […] The final DMSO concentration was 0.15% v/v. VCB protein experiments were carried out in a buffer containing 20 mM Bis-tris propane, 150 mM NaCl, 1 mM TCEP, 0.15% v/v DMSO, pH 7.4. The titrations consisted of 19 injections of 2 µL compounds solution (150 µM, in the syringe) at a rate of 0.5 µl s^−1 at 120 s time intervals into the VCB protein solution (20 µM, in the cell). An initial injection of compound solution (0.4 µL) was made and discarded during data analysis. All experiments were performed at 25 °C, whilst stirring the syringe at 600 rpm. The data were fitted to a single binding site model to obtain the stoichiometry n, the dissociation constant K d and the enthalpy of binding ΔH using the Microcal LLC ITC200 Origin software provided by the manufacturer.
In general terms: ITC needs no label: the signal is the heat of the interaction.

For experiment [1], the system named is Hypoxia response element (HRE)-luciferase reporter U2OS-HRE cells. The experiment in a line: HRE-luciferase reporter assay in U2OS-HRE cells. The experiment is classed as cell-based, Human. Conditions: different concentrations and times. How it is done: Luciferase assay. Assay was performed as described. Briefly, cells (HeLa and U2OS) stably expressing an HRE-luciferase reporter were treated for the indicated times with compounds. Cells were harvested in passive lysis buffer (Promega) and subjected to three freeze-thaw cycles. The soluble lysate fraction was used for assays, performed according to the manufacturer’s instructions (Promega) using a Berthold Lumat LB 9507 Luminometer. Results were normalized for protein concentration, and reported as mean ± s.e.m. from three biological replicates.
(Reporter assays use an easily measured gene product as a stand-in for the process of interest.)

Chain of pVHL30 (P40337 whole entry, canonical isoform): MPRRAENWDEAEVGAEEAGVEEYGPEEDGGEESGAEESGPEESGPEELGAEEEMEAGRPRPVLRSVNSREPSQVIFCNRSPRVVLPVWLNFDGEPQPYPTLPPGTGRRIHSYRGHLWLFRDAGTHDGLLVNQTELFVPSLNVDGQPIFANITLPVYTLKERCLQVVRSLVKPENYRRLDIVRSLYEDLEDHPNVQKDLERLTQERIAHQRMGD
Chain of pVHL30 (Q15369 17-112 partner limits assumed): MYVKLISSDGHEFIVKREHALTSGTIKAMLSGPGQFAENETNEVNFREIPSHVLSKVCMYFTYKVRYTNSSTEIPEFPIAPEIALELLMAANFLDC
Chain of pVHL30 (Q15370 1-104 partner limits assumed): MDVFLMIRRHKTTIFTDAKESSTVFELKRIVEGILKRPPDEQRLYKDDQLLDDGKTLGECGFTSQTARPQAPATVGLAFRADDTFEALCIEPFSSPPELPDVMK

In general, Kd refers to the constant that tells how readily two partners part at equilibrium. The low end stands for tighter binding, the high end for weaker binding. For the molecule `Cc1ncsc1-c1ccc(CNC(=O)[C@@H]2C[C@@H](O)CN2C(=O)[C@@H](NC(=O)COCCOCCOCCOCCOCCOCC(=O)N[C@H](C(=O)N2C[C@H](O)C[C@H]2C(=O)NCc2ccc(-c3scnc3C)cc2)C(C)(C)C)C(C)(C)C)cc1` [CM11, N ^1 ,N ^20-bis((S)-1-((2S,4R)-4-hydroxy-2-((4-(4-methylthiazol-5-yl)benzyl)carbamoyl)pyrrolidin-1-yl)-3,3-dimethyl-1-oxobutan-2-yl)-3,6,9,12,15,18-hexaoxaicosanediamide], at pVHL30 (25 °C, pVHL30), the ΔG entry was “–10.4 ± 0.1 kcal mol^−1” and the ΔH result is “–11.3 ± 0.1 kcal mol^−1”. Further, the affinity at pVHL30 (25 °C, pVHL30 (V30CB)), expressed as Kd, was 25 ± 3 nM. Besides, the n at pVHL30 (25 °C, stoichiometry of binding, pVHL30 (V30CB)) turned out to be 0.866 ± 0.003. At pVHL30 (avidity / cooperativity, pVHL30), this molecule came in with a α of 7.5. In experiment [1], the “luciferase activity relative to DMSO control” value is listed as “no increase”.
